12 molecules from ChEMBL document CHEMBL1127032, “(Dipropylphenoxy)phenylacetic acids: a new generation of nonpeptide angiotensin II receptor antagonists” (J Med Chem, 1993) can be followed below.

Assay [1] concerns the target T1, Type-1 angiotensin II receptor (Oryctolagus cuniculus, UniProt P34976).
T1 sequence (P34976 whole entry): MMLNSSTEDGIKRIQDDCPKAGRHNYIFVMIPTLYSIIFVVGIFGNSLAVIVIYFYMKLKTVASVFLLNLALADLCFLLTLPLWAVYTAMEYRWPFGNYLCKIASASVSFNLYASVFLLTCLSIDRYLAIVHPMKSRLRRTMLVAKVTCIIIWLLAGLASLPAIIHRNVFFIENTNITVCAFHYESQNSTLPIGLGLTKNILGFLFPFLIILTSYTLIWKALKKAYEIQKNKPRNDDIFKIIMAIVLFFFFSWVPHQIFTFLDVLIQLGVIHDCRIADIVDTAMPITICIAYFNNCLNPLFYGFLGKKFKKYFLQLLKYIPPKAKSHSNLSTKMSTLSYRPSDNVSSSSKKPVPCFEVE
As to the kind of experiment: Displacement of […][Sar1,IIe8]AII from rabbit aorta Angiotensin II receptor, type 1. In kind it is tissue-based.

Assay [2] concerns the target T2, Type-2 angiotensin II receptor (Rattus norvegicus, UniProt P35351).
T2 sequence (P35351 whole entry): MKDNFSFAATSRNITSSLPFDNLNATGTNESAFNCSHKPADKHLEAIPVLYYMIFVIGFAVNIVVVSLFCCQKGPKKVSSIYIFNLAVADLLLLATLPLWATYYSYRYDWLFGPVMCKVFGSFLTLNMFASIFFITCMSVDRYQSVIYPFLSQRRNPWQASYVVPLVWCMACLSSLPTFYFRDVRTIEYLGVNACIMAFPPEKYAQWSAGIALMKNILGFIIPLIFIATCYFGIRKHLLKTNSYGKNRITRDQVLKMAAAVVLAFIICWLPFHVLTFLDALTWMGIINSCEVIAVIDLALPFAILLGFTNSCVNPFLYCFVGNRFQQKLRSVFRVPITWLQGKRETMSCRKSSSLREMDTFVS
As to the kind of experiment: Displacement of […][Sar1,IIe8]AII from rat midbrain angiotensin II (AT2) receptor.

Some results are limits rather than exact numbers.

The IC50 is the concentration at which inhibition is half-maximal. Consider `CCCc1cc(Cn2c(CC)nc3c(C)cc(C)nc32)cc(CCC)c1OC(C(=O)O)c1ccc(Oc2ccccc2)cc1` (stereo not drawn), for which the results for the IC50 in assay [1] and in assay [2] were 5.2 nM and 1900 nM, respectively. The like results for `CCCc1cc(Cn2c(CC)nc3c(C)cc(C)nc32)cc(CCC)c1OC(C(=O)O)c1cccc(C)c1` (stereo not drawn) were, in that order, 0.74 nM and 800 nM. The molecule `CCc1nc2c(C)cc(C)nc2n1Cc1ccc(-c2ccccc2-c2nnn[nH]2)cc1` [L-158809] returned an IC50 in assay [2] greater than 10000 nM.

In the case of `CCCc1cc(Cn2c(CC)nc3c(C)cc(C)nc32)cc(CCC)c1OC(C(=O)O)c1ccc(C)cc1` (stereo not drawn), the results for the IC50 in assay [1] and in assay [2] were 4 nM and 400 nM, respectively.

Take `CCCc1cc(Cn2c(CC)nc3c(C)cc(C)nc32)cc(CCC)c1OC(C(=O)O)c1ccccc1C` (stereo not drawn): the results for the IC50 in assay [1] and in assay [2] were 1.2 nM and 7500 nM, respectively. As to `CCCc1cc(Cn2c(CC)nc3c(C)cc(C)nc32)cc(CCC)c1OC(C(=O)O)c1ccccc1Cl` (stereo not drawn), the IC50 in assay [1] stood at 0.53 nM; in assay [2] it was 3500 nM. With `CCCc1cc(Cn2c(CC)nc3c(C)cc(C)nc32)cc(CCC)c1OC(C(=O)O)c1ccc(Cl)cc1` (stereo not drawn), the IC50 in assay [1] is 2.8 nM; in assay [2] it was 450 nM. For the molecule `CCCc1cc(Cn2c(CC)nc3c(C)cc(C)nc32)cc(CCC)c1OC(C(=O)O)c1ccc(CC)cc1` (stereo not drawn), the figures for the IC50 in assay [1] and in assay [2] were 19 nM and 240 nM, respectively. In the case of `CCCc1cc(Cn2c(CC)nc3c(C)cc(C)nc32)cc(CCC)c1OC(C(=O)O)c1cccc(Oc2ccccc2)c1` (stereo not drawn), the concentration for half-maximal inhibition (IC50) stood at 0.47 nM in assay [1] and 1600 nM in assay [2].

On to `CCCc1cc(Cn2c(CC)nc3c(C)cc(C)nc32)cc(CCC)c1OC(C(=O)O)c1cccc(-c2ccccc2)c1` (stereo not drawn), for which the values for the IC50 in assay [1] and in assay [2] were 6.8 nM and 740 nM, respectively.

As for `CCCc1cc(Cn2c(CC)nc3c(C)cc(C)nc32)cc(CCC)c1OC(C(=O)O)c1ccccc1` (stereo not drawn), the IC50 in assay [1] amounted to 0.9 nM; in assay [2], 2600 nM. With `CCCc1cc(Cn2c(CC)nc3c(C)cc(C)nc32)cc(CCC)c1OC(C(=O)O)c1cccc(Cl)c1` (stereo not drawn), the IC50 in assay [1] is 0.75 nM; in assay [2], 2300 nM.
